Results published in publication PMC3346935 (2012).
Residues, ends and D or L forms follow the SMILES beside them.

Legend:
[1] = test system: RNA 6 (RNA, aptamer) GGCAAGUACUCUGACGCCGGUGGCGCAGACAGAUUUCCAGUAUGGCACGGACCGGAGAGGGAAGGAUGACAGACGUGGCGUAGAGGAGGACAGCG; test: elution from His–Phe–Sepharose by free ligand; conditions: 600 mM NaCl, 5 mM MgCl2, 5 mM CaCl2; 50 mM HEPES pH 7.0; 1.5 mM dipeptide
[2] = test system: RNA 20 (RNA, aptamer) GGCAAGUACUCUGACGCGGAUGGGCCACAACGGAUCAGACGACAGGCAUUCUUUGAAGGAAAGAUCCCAGCAGAGCGGCGUAGAGGAGGACAGCG; test: elution from His–Phe–Sepharose by free ligand; conditions: 600 mM NaCl, 5 mM MgCl2, 5 mM CaCl2; 50 mM HEPES pH 7.0; 1.5 mM dipeptide
[3] = test system: RNA 7 (RNA, aptamer) GGCAAGUACUCUGACGCAGAUGGAAGUACCUUUGAACUGGGGGAGAAUGGUUAUGAGAAUCUAGCGAAGCCGGAGGUGCGUAGAGGAGGACAGCG; test: isocratic affinity elution from His–Phe–Sepharose; conditions: 600 mM NaCl, 5 mM MgCl2, 5 mM CaCl2; 50 mM HEPES pH 7.0
[4] = test system: RNA 12 (RNA, aptamer) GGCAAGUACUCUGACGCGUGCUGCGGGCCGUUCAUAGUGGACGGGGUAGACAGAGAACCUUAGACCAAGGUAUCGGCGCGUAGAGGAGGACAGCG; test: elution from His–Phe–Sepharose by free ligand; conditions: 600 mM NaCl, 5 mM MgCl2, 5 mM CaCl2; 50 mM HEPES pH 7.0; 1.5 mM dipeptide
[5] = test system: RNA 35 (RNA, aptamer) GGCAAGUACUCUGACGCGUGGGAAGAUACGUGUAUACGCUAACAUACGGCAAGGUGAGUAGCCGGAAGUAGCAUGUGGCGUAGAGGAGGACAGCG; test: elution from His–Phe–Sepharose by free ligand; conditions: 600 mM NaCl, 5 mM MgCl2, 5 mM CaCl2; 50 mM HEPES pH 7.0; 1.5 mM dipeptide
[6] = test system: RNA 24 (RNA, aptamer) GGCAAGUACUCUGACGCCCUGAGAGCGUAAUGUGACGGACAGUCGCACUGGAGGAGGAGGAAGUGAUGCAUCGAUCGGCGUAGAGGAGGACAGCG; test: elution from His–Phe–Sepharose by free ligand; conditions: 600 mM NaCl, 5 mM MgCl2, 5 mM CaCl2; 50 mM HEPES pH 7.0; 1.5 mM dipeptide
[7] = test system: RNA 23 (RNA, aptamer) GGCAAGUACUCUGACGCGGAUGGGCCAACGGCGAGCGUCGAAGGAGCUUAGUACCGAAGCAACGCAAGCGUAGAGCGGCGUAGAGGAGGACAGCG; test: elution from His–Phe–Sepharose by free ligand; conditions: 600 mM NaCl, 5 mM MgCl2, 5 mM CaCl2; 50 mM HEPES pH 7.0; 1.5 mM dipeptide
[8] = test system: RNA 22 (RNA, aptamer) GGCAAGUACUCUGACGCGAAAUGUACAUGGCGUUAAAGUAGACGCAGGAUUAAGUGUGCUGUGGAGUCGAAACGCGGGCGUAGAGGAGGACAGCG; test: elution from His–Phe–Sepharose by free ligand; conditions: 600 mM NaCl, 5 mM MgCl2, 5 mM CaCl2; 50 mM HEPES pH 7.0; 1.5 mM dipeptide
[9] = test system: RNA 33 (RNA, aptamer) GGCAAGUACUCUGACGCGCCGAAAUGGGAGGGGUGGCGUUAACCGGCAAAGCUGCACGGGCGAUGAAGAAACGCGGGGCGUAGAGGAGGACAGCG; test: elution from His–Phe–Sepharose by free ligand; conditions: 600 mM NaCl, 5 mM MgCl2, 5 mM CaCl2; 50 mM HEPES pH 7.0; 1.5 mM dipeptide
[10] = test system: RNA 39 (RNA, aptamer) GGCAAGUACUCUGACGCGGAUGGGCCACCAAAGCACCGAAGGGUAGGAGCCACUAACUUGCGGUGAAUGGAAGAGCGGCGUAGAGGAGGACAGCG; test: elution from His–Phe–Sepharose by free ligand; conditions: 600 mM NaCl, 5 mM MgCl2, 5 mM CaCl2; 50 mM HEPES pH 7.0; 1.5 mM dipeptide
[11] = test system: RNA 13 (RNA, aptamer) GGCAAGUACUCUGACGCCUGAUGUGAUGGCCUUGGUCGAAGCGGGAUCCGACAGCUACUAUAGAGGUGUUGUCGAGGGCGUAGAGGAGGACAGCG; test: elution from His–Phe–Sepharose by free ligand; conditions: 600 mM NaCl, 5 mM MgCl2, 5 mM CaCl2; 50 mM HEPES pH 7.0; 1.5 mM dipeptide
[12] = test system: RNA 8 (RNA, aptamer) GGCAAGUACUCUGACGCAGUGGAAGUUAUGUGUAUGCGGUAGAUAGGUAACGUUCUGUCAUAGGAAGGUACUAUCGUGCGUAGAGGAGGACAGCG; test: isocratic affinity elution from His–Phe–Sepharose; conditions: 600 mM NaCl, 5 mM MgCl2, 5 mM CaCl2; 50 mM HEPES pH 7.0
[13] = test system: RNA 25 (RNA, aptamer) GGCAAGUACUCUGACGCCGAAGCCAGCCGGCGAUUGGGAACGACGGAAUUCCUCACUUCUGUUAAAGGUCAACCAGGGCGUAGAGGAGGACAGCG; test: isocratic affinity elution from His–Phe–Sepharose; conditions: 600 mM NaCl, 5 mM MgCl2, 5 mM CaCl2; 50 mM HEPES pH 7.0
[14] = test system: RNA 44 (RNA, aptamer) GGCAAGUACUCUGACGCUAGGCAGCGGCGAGGGAAGUUGGAGCUUAGACCAGUUAGGAGCUGGAGACCAGGCAGUCGGCGUAGAGGAGGACAGCG; test: affinity column elution; conditions: 600 mM NaCl, 5 mM MgCl2, 5 mM CaCl2; 50 mM HEPES pH 7.0
[15] = test system: RNA 40 (RNA, aptamer) GGCAAGUACUCUGACGCAAGGGUAGAUAUGCGUAUAUGCAGAUCCCAAAUAAAGGACGAAUUUAGUACGGGGGGUGUGCGUAGAGGAGGACAGCG; test: isocratic affinity elution from His–Phe–Sepharose; conditions: 600 mM NaCl, 5 mM MgCl2, 5 mM CaCl2; 50 mM HEPES pH 7.0
[16] = test system: RNA 11 (RNA, aptamer) GGCAAGUACUCUGACGCGAGGGUGGAUACGUGUAUGCGGUUACAUCUGUGGUUUCUAAAAGAGCAAGCCGAUGUGGCGUAGAGGAGGACAGCG; test: elution from His–Phe–Sepharose by free ligand; conditions: 600 mM NaCl, 5 mM MgCl2, 5 mM CaCl2; 50 mM HEPES pH 7.0; 1.5 mM dipeptide

Structure (SMILES) | binding [1] | binding [2] | K D [3] | binding [4] | binding [5] | binding [6] | binding [7] | binding [8] | binding [9] | binding [10] | binding [11] | K D [12] | K D [13] | binding [14] | K D [15] | binding [16]
N[C@@H](Cc1cnc[nH]1)C(=O)N[C@@H](Cc1ccccc1)C(=O)O (H-His-Phe-OH) | yes | yes | 0.478 ± 0.061 mM | yes | yes | yes | yes | yes | yes | yes | yes | 0.102 ± 0.033 mM | 0.036 ± 0.002 mM | yes | 0.077 ± 0.007 mM | yes
NCC(=O)N[C@@H](Cc1ccccc1)C(=O)O (H-Gly-Phe-OH) | – | – | 31.6 mM | – | – | – | – | – | – | – | – | > 34 mM | > 727 mM | – | 9.3 mM | –
N[C@@H](Cc1cnc[nH]1)C(=O)O | – | – | > 119 mM | – | – | – | – | – | – | – | – | > 34 mM | > 727 mM | no | > 227 mM | –
N[C@@H](Cc1c[nH]cn1)C(=O)NCC(=O)O (H-His-Gly-OH) | – | – | 10.5 mM | – | – | – | – | – | – | – | – | 5.4 mM | 8.2 mM | – | 3.4 mM | –
N[C@@H](Cc1ccccc1)C(=O)O | – | – | 22 mM | – | – | – | – | – | – | – | – | > 34 mM | > 727 mM | yes | > 227 mM | –
